Here are results for 26 molecules from ChEMBL document CHEMBL1137804, “Natural product-based anti-HIV drug discovery and development facilitated by the NCI developmental therapeutics program” (J Nat Prod, 2001).

The subject of series [1] is Human immunodeficiency virus 2. The experiment in a line: Antiviral activity against HIV2. It counts as functional, organism-based.
For series [2], the target named is Human immunodeficiency virus type 1 integrase (Human immunodeficiency virus 1, UniProt Q7ZJM1). Briefly: Inhibition of HIV1 integrase-catalyzed disintegration activity.
Chain of Human immunodeficiency virus type 1 integrase (Q7ZJM1 whole entry): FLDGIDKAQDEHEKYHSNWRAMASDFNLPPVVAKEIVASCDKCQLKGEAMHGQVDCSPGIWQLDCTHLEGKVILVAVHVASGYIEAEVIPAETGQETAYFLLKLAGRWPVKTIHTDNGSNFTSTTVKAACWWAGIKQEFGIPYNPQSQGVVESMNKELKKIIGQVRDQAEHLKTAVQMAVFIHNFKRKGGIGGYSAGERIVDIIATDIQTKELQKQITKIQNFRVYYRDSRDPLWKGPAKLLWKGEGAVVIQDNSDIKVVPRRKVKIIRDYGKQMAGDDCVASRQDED
Series [3] concerns Human immunodeficiency virus 1. Briefly: Antiviral activity against HIV1 LAI in human MT2 cells assessed as virus-induced cytopathic effect after 72 hrs. It counts as functional. Particulars: Human immunodeficiency virus 1, LAI, MT2, 72 h; read-out: ED50 (the source's name). On the technique in general: Protection from cytopathic effect is a common read-out in antiviral testing.

Series [4] is described as follows: Therapeutic index, ratio of cytotoxicity against human MT2 cells to EC50 for HIV1 LAI. It counts as cell-based. The settings on record: read-out: TI.
A short description of series [5]: Therapeutic index, ratio of cytotoxicity against human CEM-SS cells to EC50 for HIV1 RF. It counts as cell-based. The settings on record: read-out: TI.
For series [6], the system named is Human immunodeficiency virus 1. Briefly: Antiviral activity against HIV1 RF in human CEM-SS cells assessed as inhibition of virus-induced cytopathic effect. It counts as functional, organism-based. The settings on record: Human immunodeficiency virus 1, RF.
Series [7] addresses Human immunodeficiency virus type 1 reverse transcriptase (Human immunodeficiency virus 1, UniProt Q72547). Briefly: Inhibition of HIV1 reverse transcriptase.
Series [8] concerns Human immunodeficiency virus 1. The experiment in a line: Antiviral activity against HIV1 RF in human H9 cells assessed as inhibition of virus-induced cytopathic effect by formazan-based conventional colorimetric technique. It counts as functional, organism-based. The settings on record: Human immunodeficiency virus 1, RF.
The nature of series [9]: Therapeutic index, ratio of cytotoxicity against human H9 cells to EC50 for HIV1 RF. It counts as cell-based. The settings on record: read-out: TI.
In series [10] the test system is Human immunodeficiency virus 1. The experiment in a line: Antiviral activity against pyridinone-resistant HIV1 A17. It counts as functional, organism-based. The settings on record: Human immunodeficiency virus 1, A17.
Series [11] has as its system Human immunodeficiency virus 1. The experiment in a line: Antiviral activity against azidothymidine-resistant HIV1 G9106. It counts as functional, organism-based. Particulars: Human immunodeficiency virus 1, G9106.
The subject of series [12] is Human immunodeficiency virus 1. The experiment in a line: Antiviral activity against HIV1 in human CEM-SS cells assessed as inhibition of virus-induced cytopathic effect. It counts as functional, organism-based. Particulars: Human immunodeficiency virus 1, CEM-SS.
The nature of series [13]: Therapeutic index, ratio of cytotoxicity against human H9 cells to EC50 for HIV1 3B. The settings on record: read-out: TI. It counts as cell-based.
Series [14] is described as follows: Therapeutic index, ratio of cytotoxicity against human MT2 cells to EC50 for HIV1 RF. The settings on record: read-out: TI. It counts as cell-based.
Series [15] has as its system Human immunodeficiency virus 1. The experiment in a line: Antiviral activity against HIV1 RF in human MT2 cells assessed as virus-induced cytopathic effect after 72 hrs. It counts as functional. Particulars: Human immunodeficiency virus 1, RF, MT2, 72 h; read-out: ED50 (the source's name).
The test system of series [16] is Human immunodeficiency virus 1. Briefly: Antiviral activity against HIV1 3B in human H9 cells assessed as inhibition of virus-induced cytopathic effect by formazan-based conventional colorimetric technique. It counts as functional, organism-based. The settings on record: Human immunodeficiency virus 1, 3B.
The next series has as its system H9. Briefly: Cytotoxicity against human H9 cells. It counts as cell-based.
The subject of series [17] is Human immunodeficiency virus 1. Briefly: Antiviral activity against HIV1 RF in human CEM cells. It counts as functional, organism-based. Particulars: Human immunodeficiency virus 1, RF, CCRF-CEM.
The subject of series [18] is Human immunodeficiency virus 1. Briefly: Antiviral activity against HIV1 Rojo in human CEM cells. Particulars: Human immunodeficiency virus 1, Rojo, CCRF-CEM. It counts as functional, organism-based.

In brackets after ≈: the same amount, converted by molar mass.

Consider `CSC[C@H](NC(=O)COc1cccc2cnccc12)C(=O)N[C@@H](Cc1ccccc1)[C@H](O)C(=O)N1CSC(C)(C)[C@H]1C(=O)NC(C)(C)C`, for which the EC50 in series [1] came to 20 nM.
As to `O=C(/C=C/c1ccc(O)c(O)c1)O[C@@H]1C[C@](O)(C(=O)O)C[C@@H](OC(=O)/C=C/c2ccc(O)c(O)c2)[C@H]1O`, in [2], the IC50 (usually the concentration that gives 50% inhibition) is 1280 nM. The EC50 in [3] was 1 µg/mL (≈ 1.94 µM). The selectivity ratio in [4] stood at 150.
As to `O=C(O[C@@H]1C[C@](OC(=O)c2cc(O)c(O)c(O)c2)(C(=O)O)C[C@@H](OC(=O)c2cc(O)c(O)c(O)c2)[C@H]1OC(=O)c1cc(O)c(O)c(O)c1)c1cc(O)c(O)c(O)c1`, in series [5], the selectivity ratio was found to be 20. Further, the EC50 in series [6] came to 500 nM. Also, the midpoint of inhibition in series [7], the IC50, lay at 800 nM.
As to `CSC[C@H](NC(=O)COc1cccc2cnccc12)C(=O)N[C@@H](Cc1ccccc1)[C@H](O)C(=O)N1CSC[C@H]1C(=O)NC(C)(C)C`, the EC50 in series [8] was 20 nM. In [9], the selectivity ratio is more than 4.6.
Take `CC(C)=CCOc1c(CC=C(C)C)c(O)nc2ccccc12`: the selectivity ratio in series [5] was determined as 17. Further, the EC50 in series [6] worked out at 1640 nM.
The matching figures for `CN1CCCCC1c1c(O)cc(O)c2c(=O)cc(-c3ccccc3)oc12` (centres undefined): 3 and 260 nM.
In the case of `COC(=O)C(=O)O[C@]1(C(=O)O)C[C@@H](OC(=O)/C=C/c2ccc(O)c(O)c2)[C@H](O)[C@H](OC(=O)/C=C/c2ccc(O)c(O)c2)C1`, in series [2], the IC50 is 946 nM. Further, the EC50 in series [3] was found to be 4 µg/mL (≈ 6.64 µM). In addition, the selectivity ratio in series [4] came to 87.
Consider `CCCc1cc(=O)oc2c3c(c4c(c12)OC(C)(C)CC4)O[C@@H](C)[C@H](C)[C@@H]3O` [7,8-DIHYDROCALANOLIDE B], for which the selectivity ratio in series [5] came out at 99.8. In series [6], the EC50 worked out at 100 nM.
For `C=CC(C)(C)C1(CC=C(C)C)C(=O)Nc2ccccc2C1=O` (centres undefined) [BUCHAPINE], the selectivity ratio in series [5] is 31. The EC50 in [6] stood at 940 nM. The molecule also registered an IC50 in series [7] of 10000 nM.
As to `CCCc1cc(=O)oc2c3c(c4c(c12)OC(C)(C)C=C4)O[C@H](C)[C@@H](C)[C@@H]3O` [CALANOLIDE A], the EC50 in series [10] was not above 600 nM; in series [6], 200 nM; in series [11], not above 30 nM. Further, the selectivity ratio in series [5] was determined as 103.
As to `CC(C)=CCC[C@]1(C)C=Cc2c(ccc3c2C(=O)C(O)=C(C2=C(C4=C(O)C(=O)c5c(ccc6c5C=C[C@@](C)(CCC=C(C)C)O6)C4=O)C(=O)c4c(ccc5c4C=C[C@@](C)(CCC=C(C)C)O5)C2=O)C3=O)O1` [CONOCURVONE], in series [12], the EC50 came to 20 nM.
Turning to `CCCc1cc(=O)oc2c3c(c4c(c12)OC(C)(C)C=C4)O[C@@H](C)[C@H](C)[C@@H]3O` [COSTATOLIDE], the selectivity ratio in series [5] was more than 20. Further, in series [6], the EC50 was 200 nM.
As to `O=c1[nH]cnc2c1ncn2[C@H]1CC[C@@H](CO)O1` [DIDANOSINE], the selectivity ratio in [13] and in series [9] was 1760 in each case.
For the molecule `Cc1cc(O)c(C=O)c2c1C(=O)Oc1c(COC(=O)/C=C/C(=O)O)c(O)c(C(=O)O)c(C)c1O2` [FUMARPROTOCETRARIC ACID], the selectivity ratio in series [14] is more than 4.61. In addition, the EC50 in series [15] worked out at 8400 nM.
Turning to `Nc1ccn([C@@H]2CS[C@H](CO)O2)c(=O)n1` [LAMIVUDINE], the EC50 in [8] and in series [16] was 60 nM each time.
Consider `Nc1ncnc2c1ncn2[C@@H]1O[C@H](CO)C[C@@H]1F` [LODENOSINE], for which the selectivity ratio in [13] and in [9] was more than 17 each time. Also, the EC50 in series [8] and in [16] was 1160 nM throughout.
On to `COc1cc(C)cc2c(-c3c(O)cc(O)c4c3C[C@@H](C)N[C@@H]4C)cc(-c3cc(-c4c(O)cc(O)c5c4C[C@@H](C)N[C@@H]5C)c4cc(C)cc(OC)c4c3O)c(O)c12` [MICHELLAMINE A], for which the EC50 in series [12] is 1000 nM.
`CO[C@@H]1C[C@@H](C[C@H]2CC[C@H](C)[C@H]([C@@H](C)C(=O)O)O2)O[C@]2(O[C@](C)([C@H]3CC[C@@](C)([C@@H]4O[C@@H]([C@H]5O[C@@](O)(CO)[C@H](C)C[C@@H]5C)C[C@@H]4C)O3)C[C@H]2C)[C@@H]1C` [NIGERICIN]: in the series with H9, the IC50 was determined as 140 nM. In addition, in series [8], the EC50 turned out to be 6 nM.
As to `COc1cc2c[n+](C)c3c4cc5c(cc4ccc3c2cc1OC)OCO5` [NITIDINE CHLORIDE], in [5], the selectivity ratio is 3. Further, in [6], the EC50 came to 14000 nM.
For `C=CC(C)(CC/C=C(\C)CCC=C(C)C)c1cc(O)c(O)c(-c2cc(C(C)(C=C)CC/C=C(\C)CCC=C(C)C)cc(O)c2O)c1` (centres undefined) [PELTATOL A], the EC50 in series [12] came out at 8000 nM.
Consider `CC(C)CC(=O)N[C@H](C(=O)N[C@H](C(=O)N[C@@H](CC(C)C)[C@@H](O)CC(=O)N[C@@H](C)C(=O)N[C@@H](CC(C)C)[C@@H](O)CC(=O)O)C(C)C)C(C)C` [PEPSTATIN], for which the EC50 came out at 69000 nM in series [17], 51800 nM in series [8] and 150000 nM in series [18].
As to `CC(=O)O[C@@]12C[C@@H](C)[C@@]3(O)[C@@H](C=C(CO)C[C@]4(O)C(=O)C(C)=C[C@@H]34)[C@@H]1C2(C)C` [PROSTRATIN], the EC50 in series [12] is not above 132 nM.
Turning to `Cc1cn([C@H]2C=C[C@@H](CO)O2)c(=O)[nH]c1=O` [STAVUDINE], the EC50 in series [8] and in series [16] was 60 nM in each case.
Turning to `C=C1C(=O)[C@]23C[C@H]1CC[C@H]2[C@]1(C)CCC[C@@](C)(C(=O)O)[C@H]1C[C@@H]3OC(C)=O` [XYLOPINIC ACID], in series [12], the EC50 is not above 900 nM.
Turning to `Nc1ccn([C@H]2CC[C@@H](CO)O2)c(=O)n1` [ZALCITABINE], the selectivity ratio in [13] and in series [9] was 200 in each case. Also, the EC50 in series [8] and in series [16] was 1 nM throughout.
Take `Cc1cn([C@H]2C[C@H](N=[N+]=[N-])[C@@H](CO)O2)c(=O)[nH]c1=O` [ZIDOVUDINE]: the selectivity ratio in [13] and in series [9] was more than 1000 in each case. Moreover, the EC50 in series [8] and in [16] was 1 nM each time.
